Regarding `O=C(Nc1nc(-c2ccco2)c(C(=O)c2cccnn2)s1)c1ccncc1` [Compound 283, N-[4-(2-Furyl)-5-(pyridazine-3-ylcarbonyl)thiazol-2-yl]pyridine-4-carboxamide], the melting point – broadly, the temperature of the solid-liquid transition – was in the range of 280 to 281 °C.

For the compound `CC(=O)c1sc(NC(=O)c2ccncc2)nc1-c1ccco1` [Compound 284, N-[5-Acetyl-4-(2-furyl)thiazol-2-yl]pyridine-4-carboxamide], the melting point was 252 to 259 °C (dec.).

Compound `O=C(Nc1nc(-c2ccco2)c(C(=O)C(F)(F)F)s1)c1ccncc1` [Compound 287, N-[4-(2-Furyl)-5-(trifluoroacetyl)thiazol-2-yl]pyridine-4-carboxamide] showed a melting point of 268 to 270 °C.

With `CCC(=O)c1sc(NC(=O)c2ccncc2)nc1-c1ccco1` [Compound 288, N-[4-(2-Furyl)-5-propionylthiazol-2-yl]pyridine-4-carboxamide], the melting point is 225 to 240 °C (dec.).

`CCCC(=O)c1sc(NC(=O)c2ccncc2)nc1-c1ccco1` [Compound 289, N-[5-Butyryl-4-(2-furyl)thiazol-2-yl]pyridine-4-carboxamide] showed a melting point of 191 to 194 °C.

As for `CCCC(=O)c1sc(NC(=O)C2CC2)nc1-c1ccco1` [Compound 292, N-[5-Butyryl-4-(2-furyl)thiazol-2-yl]cyclopropanecarboxamide], the melting point lay in the range of 170 to 172 °C.

`CCCC(=O)c1sc(NC(=O)c2ccco2)nc1-c1ccco1` [Compound 293, N-[5-Butyryl-4-(2-furyl)thiazol-2-yl]furan-2-carboxamide] gave a melting point of 172 to 176 °C.

In turn, `CC(C)C(=O)c1sc(N)nc1-c1ccco1` [Compound 299, 2-Amino-4-(2-furyl)thiazol-5-yl isopropyl ketone] showed a melting point of 195 to 199 °C.

On to `CC(C)C(=O)c1sc(NC(=O)c2ccncc2)nc1-c1ccco1` [Compound 300, N-[4-(2-Furyl)-5-isobutyrylthiazol-2-yl]pyridine-4-carboxamide], for which the melting point fell in the range of 179 to 182 °C.

Regarding `CC(C)C(=O)c1sc(NC(=O)C2CC2)nc1-c1ccco1` [Compound 301, N-[4-(2-Furyl)-5-isobutyrylthiazol-2-yl]cyclopropanecarboxamide], the melting point was 178 to 182 °C.

`CC(C)(C)C(=O)c1sc(NC(=O)c2ccncc2)nc1-c1ccco1` [Compound 306, N-[4-(2-Furyl)-5-pivaloylthiazol-2-yl]pyridine-4-carboxamide] gave a melting point of 240 to 245 °C.

The compound `CC(C)(C)C(=O)c1sc(NC(=O)C2CC2)nc1-c1ccco1` [Compound 307, N-[4-(2-Furyl)-5-pivaloylthiazol-2-yl]cyclopropanecarboxamide] yielded a melting point of 133 to 134 °C.

On to `COCC(=O)c1sc(NC(=O)c2ccc(Cl)nc2)nc1-c1ccco1` [Compound 310, 2-Chloro-N-[4-(2-furyl)-5-(methoxyacetyl)thiazol-2-yl]pyridine-5-carboxamide], for which the melting point was 174 to 183 °C.

Compound `COCC(=O)c1sc(NC(=O)c2ccc(F)cc2)nc1-c1ccco1` [Compound 311, 4-Fluoro-N-[4-(2-furyl)-5-(methoxyacetyl)thiazol-2-yl]benzamide] registered a melting point of 166 to 167 °C.

Compound `COCC#CC(=O)c1sc(NC(=O)c2ccncc2)nc1-c1ccco1` [Compound 319, N-[4-(2-Furyl)-5-(3-methoxyprop-1-ynylcarbonyl)thiazol-2-yl]pyridine-4-carboxamide] showed a melting point of 198 to 200 °C.

For `O=C(Nc1nc(-c2ccco2)c(C(=O)C2CC2)s1)c1ccncc1` [Compound 323, N-[5-(Cyclopropylcarbonyl)-4-(2-furyl)thiazol-2-yl]pyridine-4-carboxamide], the melting point was 225 to 230 °C (dec.).

`COc1ccccc1C(=O)Nc1nc(-c2ccco2)c(C(=O)C2CC2)s1` [Compound 326, N-[5-(Cyclopropylcarbonyl)-4-(2-furyl)thiazol-2-yl]-2-methoxybenzamide] showed a melting point of 150 to 154 °C.

The values are drawn from patent US7928098B2, “Therapeutic and/or preventive agents for a sleep disorder” (Kyowa Hakko Kirin Co., Ltd., priority 2005, dated 2011).
